What was measured:
[1] = biological target: N-acetylglucosamine-1-phosphate uridyltransferase (GlmU) (Escherichia coli, UniProt P0ACC7); experiment: GlmU inhibition, biochemical test (384-plate format, DTNB, absorption at 405 nm); set-up: species or system bacterial; details: 60 minutes of incubation at 30° C.; read-out: inhibition constant, IC50, inhibitory effect on the enzyme GlmU
Protocol: The inhibition of the GlmU can be determined in a biochemical test using the following method:
The assay was carried out in a 384-plate format. The reaction volume was 40 μl per test. The reaction mixture contained 10 μl of test substance and 15 μl of substrate solution consisting of acetylCoA and D-glucosamine-1-phosphate. The enzyme reaction was started by adding 15 μl of GlmU enzyme solution. After 60 minutes of incubation at 30° C., the reaction was stopped by adding 10 μl of developer reagent (DTNB dissolved in guanidine). The plates were then centrifuged (1 min, 1000 rpm) and stored for a further 45 minutes at room temperature before the absorption was read at 405 nm in a photometer. In order to be able to calculate the inhibitory activity of the test compounds, positive controls (signal with GlmU) and negative controls (signal without GlmU) were included on each plate. In order to exclude falsely positive samples, which could be caused by nonspecific substance effects (e.g. color), blank plates, which contained the substances but no GlmU, were included in parallel with the test plates. After correction for the blanks, the inhibitory activities of the substances were calculated in accordance with the following formula: Inhibition(%)=100×[1−(OD405 nm substance/OD405 nm positive control)]

[2] = Physicochemical properties: stability
[3] = Physicochemical properties: solubility; details: organic solvents

Sequence of N-acetylglucosamine-1-phosphate uridyltransferase (GlmU) (P0ACC7 whole entry): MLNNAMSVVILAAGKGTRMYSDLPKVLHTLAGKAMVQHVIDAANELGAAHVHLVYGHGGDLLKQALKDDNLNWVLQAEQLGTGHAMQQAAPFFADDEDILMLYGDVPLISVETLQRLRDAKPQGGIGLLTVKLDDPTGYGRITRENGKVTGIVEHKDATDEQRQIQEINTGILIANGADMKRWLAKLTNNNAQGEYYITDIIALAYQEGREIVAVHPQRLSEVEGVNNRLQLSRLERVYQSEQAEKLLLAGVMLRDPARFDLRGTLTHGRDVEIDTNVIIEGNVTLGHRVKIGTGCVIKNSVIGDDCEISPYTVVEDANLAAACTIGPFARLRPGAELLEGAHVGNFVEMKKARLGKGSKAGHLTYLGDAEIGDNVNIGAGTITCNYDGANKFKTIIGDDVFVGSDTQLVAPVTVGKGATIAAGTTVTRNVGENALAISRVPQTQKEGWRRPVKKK

Cc1c(O)c(O)c(O)c(C=O)c1-c1cc2c(C=O)c(C)c(O)c(O)c2o1 [(II)]
IC50 [1]: 1000 nM | stability ([2]; neutral and mildly acid medium): Stable in neutral and mildly acid medium | stability ([2]; strongly acidic and alkaline solutions, under the influence of oxygen): unstable in strongly acidic and alkaline solutions and under the influence of oxygen | solubility [3]: soluble in medium-polar and polar organic solvents

— patent US7148254B2, “2-Phenylbenzofuran derivatives, a process for preparing them, and their use” (Sanofi-Aventis Deutschland GmbH, priority 2003, dated 2006)
